Measurements reported in BindingDB's records for patent US20250042862 (Shanghai Institute of Materia Medica, 2025).

Molecular target: Lysine-specific histone demethylase 1A (Homo sapiens, UniProt O60341)
Experiment: In Vitro Enzyme Inhibition Activity Assay
Procedure: The purpose of this experiment was to test the in vitro inhibitory activity of the compounds against LSD1. The human recombinant LSD1 protein used in the experiment was purchased from Active Motif, and the enzyme level activity testing assay of LSD1 was performed using the Lance Ultra LSD1 Histone H3 Lysine 4 Demethylase Assay Kit (PerkinElmer). Tris-buffer (50 mMTris-HCl, 50 mMNaCl, 0.01% Tween-20, 1 mM DTT, 10 μM FAD, 10% glycerol, pH 9.0) was first prepared, and after preparation, the LSD1 fractions required for test were placed in this buffer and incubated for one hour at room temperature; the fractions included 4 μL of substrate solution ([…] Bio-H3K4me2, 1-24aa), 4 μL of enzyme solution (4 nM LSD1), and 2 μL of inhibitor in a 384-well microplate. After these operations, another 5 μL of assay mixture containing Eu-labeled H3K4me0 antibody and ULight-Streptavidin anti-biotin protein was added to the system, after which the fluorescence intensity of the components to be tested was detected by using Envision (PerkinElmer) in TR-FRET mode (excitation wavelength of 320 nm, emission wavelength of 620 nm). The test was repeated a total of three times to minimize errors. The final IC50 data were calculated by the software GraphPad Prism 5, and finally the sigmoidal dose-response (variable slope) method was used to obtain the fitted curve.

Structure (SMILES)	IC50
N#Cc1ccc(-c2nc(NC[C@H]3CCNC3)nc3ccc(-c4ccccc4Cl)cc23)cc1F [US20250042862, Compound 42]	< 0.03 µM
N#Cc1ccc(-c2nc(NC[C@H]3CCNC3)nc3ccc(-c4ccccc4C(F)(F)F)cc23)cc1F [US20250042862, Compound 40]	< 0.03 µM
